Measurements from patent publication US20130085105A1, “Transdermal Administration Of Peptides” (The Provost, Fellows and Scholars of the College of Holy …, priority 2010, published 2013).
“And” between values parts separate entries of the source, which are not always exact repeats. Equal values may be shown once. Read-outs that look alike come from different tables or passages of the source. One block for each molecule: values may come before it.

How the values were obtained:
[1] = Partition coefficients n-octanol/deionized water and n-octanol/PBS; assay type: physicochemical; details: 24 hours; for Log KOPBS / O/PBS Coefficient (KOPBS): n-octanol/PBS pH 7.4, 37° C.; for Log KOW / O/W Coefficient (KOW): n-octanol/deionized water, 37° C.
Procedure: The partition coefficients for all somatostatin-fatty acid salts in either n-octanol/deionized water or n-octanol/PBS (pH 7.4) were determined. The partition coefficient is the concentration of Compound A or Compound B in the n-octanol phase divided by the concentration in the aqueous or PBS phase.
An accurately weighed sample of each salt was placed into 4 ml HPLC vials sealed with caps containing pierceable silicone septa and dissolved in 2 ml n-octanol. Two ml of either deionized water or PBS were added to each sample; the vials were vortexed vigorously and incubated at 37° C. with agitation for 24 hours in a shaker-incubator at 400 rpm.
Following incubation, two samples were withdrawn from each vial. Once the layers had fully partitioned, a syringe was used to draw a sample of the aqueous phase or the n-octanol phase. Samples from each phase were diluted appropriately with deionized or methanol prior to HPLC analysis.

[2] = Solubility of somatostatin fatty-acid salts; assay type: physicochemical; details: 24 hours
Procedure: The solubilities of Compound A and Compound B oleate were determined in deionized water, phosphate-buffered saline (PBS; pH 7.4) and n-octanol. Analysis was carried out by placing an excess of each salt with 1 ml of the selected solvent into four 4 ml sealed HPLC vials. The samples were allowed to equilibrate at 37° C. for 24 hours with shaking. Each of the four dispersions was then filtered through a 0.2 μm nylon membrane (Pall Gelman, Ann Arbor, Mich., U.S.A.). Prior to HPLC analysis, the n-octanol samples were diluted 1:100 with methanol and the PBS and deionized water samples were diluted 1:10 in de-ionized water. Table 7 lists the solubilities of Compound A and Compound B oleate salts in deionized water, PBS and n-octanol.

[3] = In vitro transdermal permeation, diffusion cell, pig epidermis; assay type: in vitro ADME, domestic pigs; details: pig epidermis; donor 55% EtOH 40% Water 5% Cineole, 5 mg/ml free base peptide
Procedure: The viable epidermal layer was removed from the flanks of freshly sacrificed four month-old female domestic pigs. The flank area of each animal was carefully shaved and the upper 200 μm of skin (Meyer, W., et al., Curr. Prob. Dermatol., 7: 39-52, 1978; de Jalón, et al., J. Control. Rel., 75:191-197, 2001) was harvested using an electric dermatome (Robbins Instruments, Chatham, N.J., U.S.A.). Pigskin epidermal specimens were frozen at −18° C. between layers of PBS-soaked tissue paper enclosed in aluminum foil for up to two weeks prior to use in in vitro permeation studies.
(§1) A custom made finite dosing diffusion cell (AGB Scientific, Dublin, Ireland, FIG. 1) based upon and modified from the Keshary-Chien type diffusion cell was used for in vitro permeation studies.
(§2) Three to five diffusion cells were used in each permeation experiment and monitoring was performed over a 48 hour period. The cells were linked in series to a thermostatically controlled circulation bath set at 35° C. to mimic human skin surface temperature. Each cell was placed on a stir-plate set at a defined stirring rate of 1,000 rpm. The surface area for permeation provided by each cell was 3.14 cm^2.
(§3) Data collected from each permeation study included:
(§4) 1) the average maximum flux obtained in 48 hours (Jmax),
(§5) 2) the total absorption characterized as the total weight of peptide delivered transdermally into the receiver compartment over a 48 hour period,
(§6) 3) the lag time to detectable flux which was equivalent to the latest sampling time at which no peptide was detectable by HPLC analysis of the receiver solution, and
(§7) 4) an equivalent 48-hour steady state flux was determined by obtaining the slope of the best-fit line for a plot of cumulative flux per unit area versus time (described by McDaid, D. M. et al., Int. J. Pharm., 133:71-83, 1996).
(§8) Fresh hairless mouse skin samples or fresh or freshly thawed pig skin samples were mounted onto the diffusion cell with the SC topmost and in contact with the donor system. A rubber or plastic ring was placed on top of the skin sample to secure it in position. The combination of the diffusion cell top, the skin and the rubber ring was securely fastened together by means of a threaded cap. A recorded volume of receiver solution was added to the receiver compartment and maintained at 35° C. The receiver solution was 60/40 (v/v) PBS/propylene glycol (pH 7.1). The propylene glycol fraction was used to increase the solubility of the somatostatin-fatty acid salts. Previous work reported by Morgan et al. (J. Pharm. Sci., 87:1213-1218, 1998) has shown that a 50/50 water/propylene glycol receptor solution had no detrimental effect on the barrier integrity of both hairless mouse and porcine skin.
The receiver solution was allowed to equilibrate at 35° C. for 30 minutes. The experiment was initiated by the application of 1 ml of donor solution containing approximately 5 mg free base peptide in DMSO to the skin surface followed by sealing of the donor compartment with Parafilm®. A narrow-bore hypodermic needle was used to withdraw 1 ml samples from the receiver compartment via the sampling port; at each sampling time, an equal volume of drug-free receiver solution was immediately added back to the receiver compartment. Samples were analyzed by HPLC.
HPLC determination of peptide content in the receiver solution along with the known surface area of skin used (3.14 cm^2) allowed for calculation of transdermal flux (in units of μg/cm^2/hr) for each time point. Panels 1 and 2 of FIG. 2 show flux profiles obtained for the oleate salts of Compound A and Compound B in DMSO which far exceeded the flux profiles for the myristate, octanoate, decanoate, linoleate, nonanote, acetate and laurate salts of Compound A as well as the acetate salt of Compound B in DMSO. […]

[4] = Peptide content in upper and lower skin layers after permeation (tape stripping); assay type: in vitro ADME, hairless mice; details: percentage of total applied dose, hairless mouse skin
Procedure: The quantity of peptide present in the upper SC and lower dermis layers of the hairless mouse skin samples were determined for each concentration of analog tested. To determine analog concentrations in the SC, the skin samples were wiped clean of donor solution, patted dry and stripped twenty times with Sellotape®, using a fresh piece for each stripping. The twenty pieces of Sellotape® were pooled in a 50 ml centrifuge tube and 10 ml of 50/50 (v/v) acetonitrile/0.1M TFA was added. The sample was homogenized at 20,000 rpm for 5 minutes and then filtered. The peptide content was determined using HPLC. To determine peptide content in the dermal layer, the remaining skin sample was cut into fine pieces, homogenized and analyzed as described.

[5] = In vitro transdermal permeation, diffusion cell, hairless mouse skin; assay type: in vitro ADME, hairless mice
Text: The abdominal skin from male hairless mice (mice of the HRS strain carrying a mutant Hr gene (hr/hr)) aged 6-8 weeks was cleaned of any subcutaneous fat with blood vessels while maintaining the integrity of the viable epidermis and SC. The excised skin was used immediately after preparation and was not stored prior to use.
as §1, §2, §3, §4, §5, §6, §7, §8
The receiver solution was allowed to equilibrate at 35° C. for 30 minutes. […] A narrow-bore hypodermic needle was used to withdraw 1 ml samples from the receiver compartment via the sampling port; at each sampling time, an equal volume of drug-free receiver solution was immediately added back to the receiver compartment. Samples were analyzed by HPLC.
HPLC determination of peptide content in the receiver solution along with the known surface area of skin used (3.14 cm^2) allowed for calculation of transdermal flux (in units of μg/cm^2/hr) for each time point. Panels 1 and 2 of FIG. 2 show flux […] profiles for the myristate, octanoate, decanoate, linoleate, nonanote, acetate and laurate […]
Once lead candidate somatostatin-fatty acid salts had been selected on the basis of in vitro permeation in a DMSO solution, the effect of different solvents and penetration enhancers on permeation was assessed. The concentration of the donor solution corresponded to 5 mg/ml free base peptide for all experiments and all donor solutions were equilibrated at 37° C. for one hour prior to use. These experiments were carried out using hairless mouse skin and pigskin barriers.

[6] = donor 55% EtOH 40% Water 5% Cineole, 5 mg/ml free base peptide
[7] = donor 55/45 (v/v) EtOH/H2O, approx. 5 mg/ml free base peptide
[8] = donor DMSO, approx. 5 mg/ml free base peptide (4.9 mg/ml Compound A oleate, 5.2 mg/ml Compound A acetate)
[9] = donor DMSO, approx. 5 mg/ml free base peptide (4.9 mg/ml Compound A oleate, 5.2 mg/ml Compound A acetate), 48 hr
[10] = donor propylene glycol, approx. 5 mg/ml free base peptide
[11] = 4.3 mg/ml in DMSO +1% (v/v) oleic acid

Molecule: D-2-Nal-c(Cys-Tyr-D-Trp-Lys-Val-Cys)-Thr-NH2 [Compound A di-myristate]
- Log KOPBS [1]: 0.806
- O/PBS Coefficient (KOPBS) [1]: 6.40
- Log KOW [1]: 2.610
- O/W Coefficient (KOW) [1]: 407.50

Molecule: CC(C)[C@@H]1NC(=O)[C@H](CCCCN)NC(=O)[C@@H](Cc2c[nH]c3ccccc23)NC(=O)[C@H](Cc2ccc(O)cc2)NC(=O)[C@@H](NC(=O)[C@H](N)Cc2ccc3ccccc3c2)CSSC[C@@H](C(=O)N[C@H](C(N)=O)[C@@H](C)O)NC1=O [Compound A di-oleate, D-2-Nal-c(Cys-Tyr-D-Trp-Lys-Val-Cys)-Thr-NH2]
- solubility ([2]; deionized water, 37° C., read-out: Solubility DI H2O): 35 µg/mL
- solubility ([2]; n-octanol, 37° C., read-out: Solubility n-Octanol): 123000 µg/mL
- solubility ([2]; pH 7.4, PBS pH 7.4, 37° C., read-out: Solubility PBS): 40 µg/mL
- Jmax [3]: 9.019 μg/cm^2/hr
- Jss [3]: 1.407 μg/cm^2/hr
- Lag Time [3]: 1 h
- Total Absorption [3]: 231.09 μg/48 hr
- Wt. % delivered ([4]; 4.9 mg free base in DMSO): 9.23%
- Wt. % in lower skin layers ([4]; 4.9 mg free base in DMSO): 7.63%
- Wt. % in upper skin layers ([4]; 4.9 mg free base in DMSO): 20.22%
- Wt. % delivered ([4]; 8.9 mg free base in DMSO): 5.84%
- Wt. % in lower skin layers ([4]; 8.9 mg free base in DMSO): 1.09%
- Wt. % in upper skin layers ([4]; 8.9 mg free base in DMSO): 49.93%
- Jmax ([5]; 8.9 mg/ml free base in DMSO): 24.942 μg/cm^2/hr
- Jss ([5]; 8.9 mg/ml free base in DMSO): 3.342 μg/cm^2/hr
- Lag Time ([5]; 8.9 mg/ml free base in DMSO): 0.5 h
- Total Absorption ([5]; 8.9 mg/ml free base in DMSO): 522.82 μg/48 hr
- increase in total peptide flux over 48 hours due to cineole ([5]; 55/40/5 ethanol/water/cineole vs 55/45 ethanol/water): 7.19%
- Jmax [5, 6]: 14.100 μg/cm^2/hr
- Jss [5, 6]: 6.359 μg/cm^2/hr
- Lag Time [5, 6]: 2 h
- Total Absorption [5, 6]: 825.35 μg/48 hr
- Jmax [5, 7]: 11.343 μg/cm^2/hr
- Jss [5, 7]: 5.871 μg/cm^2/hr
- Lag Time [5, 7]: 2 h
- Total Absorption [5, 7]: 770.02 μg/48 hr
- Lag Time [5, 8]: 1.0 h and 1 h
- Total Absorption [5, 8]: 448.52 μg/48 hr
- Jmax [5, 9]: 19.887 μg/cm^2/hr
- Jss [5, 9]: 2.858 μg/cm^2/hr
- Jmax [5, 10]: 0.366 μg/cm^2/hr
- Jss [5, 10]: 0.318 μg/cm^2/hr
- Lag Time [5, 10]: 24 h
- Total Absorption [5, 10]: 55.17 μg/48 hr
- flux profile in DMSO compared with other salts ([5]; vs myristate, octanoate, decanoate, linoleate, nonanoate, acetate, laurate salts of Compound A and acetate of Compound B): far exceeded

- Log KOPBS [1]: −2.000
- O/PBS Coefficient (KOPBS) [1]: 0.01
- Log KOW [1]: −2.000
- O/W Coefficient (KOW) [1]: 0.01
Molecule: [4-(2-hydroxyethyl)]-1-piperazinylacetyl-D-Phe-c(Cys-Tyr-D-Trp-Lys-Abu-Cys)-Thr-NH2 [Compound B di-acetate]

Molecule: D-2-Nal-c(Cys-Tyr-D-Trp-Lys-Val-Cys)-Thr-NH2 [Compound A di-linoleate]
- Log KOPBS [1]: 0.866
- O/PBS Coefficient (KOPBS) [1]: 7.35
- Log KOW [1]: 1.917
- O/W Coefficient (KOW) [1]: 82.52

Molecule: CC(C)[C@@H]1NC(=O)[C@H](CCCCN)NC(=O)[C@@H](Cc2c[nH]c3ccccc23)NC(=O)[C@H](Cc2ccc(O)cc2)NC(=O)[C@@H](NC(=O)[C@H](N)Cc2ccc3ccccc3c2)CSSC[C@@H](C(=O)N[C@H](C(N)=O)[C@@H](C)O)NC1=O [Compound A di-acetate, D-2-Nal-c(Cys-Tyr-D-Trp-Lys-Val-Cys)-Thr-NH2, reference compound]
- Jmax [5, 11]: 53.576 μg/cm^2/hr
- Jss [5, 11]: 1.873 μg/cm^2/hr
- Lag Time [5, 11]: 0.0 h
- Total Absorption [5, 11]: 387.78 μg/48 hr
- effect of 1% (v/v) free oleic acid on flux ([5]; donor DMSO): increase of flux
- Lag Time [5, 8]: 29.5 h
- Total Absorption [5, 8]: 48.08 μg/48 hr
- Jmax [5, 9]: 0.320 μg/cm^2/hr
- Jss [5, 9]: 0.240 μg/cm^2/hr

Molecule: D-2-Nal-c(Cys-Tyr-D-Trp-Lys-Val-Cys)-Thr-NH2 [Compound A di-nonanoate]
- Log KOPBS [1]: 0.811
- O/PBS Coefficient (KOPBS) [1]: 6.47
- Log KOW [1]: 2.723
- O/W Coefficient (KOW) [1]: 528.50

Molecule: D-2-Nal-c(Cys-Tyr-D-Trp-Lys-Val-Cys)-Thr-NH2 [Compound A di-decanoate]
- Log KOPBS [1]: 0.844
- O/PBS Coefficient (KOPBS) [1]: 6.99
- Log KOW [1]: 2.325
- O/W Coefficient (KOW) [1]: 211.53

Molecule: D-2-Nal-c(Cys-Tyr-D-Trp-Lys-Val-Cys)-Thr-NH2 [Compound A di-laurate]
- Log KOPBS [1]: 0.854
- O/PBS Coefficient (KOPBS) [1]: 7.15
- Log KOW [1]: 2.943
- O/W Coefficient (KOW) [1]: 876.40

Molecule: D-2-Nal-c(Cys-Tyr-D-Trp-Lys-Val-Cys)-Thr-NH2 [Compound A di-octanoate]
- Log KOPBS [1]: 0.827
- O/PBS Coefficient (KOPBS) [1]: 6.71
- Log KOW [1]: 2.794
- O/W Coefficient (KOW) [1]: 622.86
